{
  "source": "patent US8980891B2",
  "about": "“Crystalline forms of certain 3-phenyl-pyrazole derivatives as modulators of the 5-HT2A serotonin receptor useful for the treatment of disorders related thereto” (Arena Pharmaceuticals, Inc., priority 2009, dated 2015)",
  "key": {"[1]": {"experiment": "slurry of the anhydrous form in water", "type": "physicochemical", "details": "stirred at about 26-28° C. for ~3 days", "procedure": "A slurry of anhydrous 4-(2-(4-(3-methoxybenzamido)-2-(1-methyl-1H-pyrazol-5-yl)phenoxy)ethyl)morpholin-4-ium chloride in water was stirred at ambient/stir plate temperature (about 26-28° C.) for ˜3 days."}, "[2]": {"tested_on": "DOCA-salt induced hypertension", "details": "rats; cited from earlier work"}, "5-HT2A": {"biological_target": "5-HT2A (Homo sapiens, UniProt P28223)", "sequence (P28223 whole entry, species assumed)": "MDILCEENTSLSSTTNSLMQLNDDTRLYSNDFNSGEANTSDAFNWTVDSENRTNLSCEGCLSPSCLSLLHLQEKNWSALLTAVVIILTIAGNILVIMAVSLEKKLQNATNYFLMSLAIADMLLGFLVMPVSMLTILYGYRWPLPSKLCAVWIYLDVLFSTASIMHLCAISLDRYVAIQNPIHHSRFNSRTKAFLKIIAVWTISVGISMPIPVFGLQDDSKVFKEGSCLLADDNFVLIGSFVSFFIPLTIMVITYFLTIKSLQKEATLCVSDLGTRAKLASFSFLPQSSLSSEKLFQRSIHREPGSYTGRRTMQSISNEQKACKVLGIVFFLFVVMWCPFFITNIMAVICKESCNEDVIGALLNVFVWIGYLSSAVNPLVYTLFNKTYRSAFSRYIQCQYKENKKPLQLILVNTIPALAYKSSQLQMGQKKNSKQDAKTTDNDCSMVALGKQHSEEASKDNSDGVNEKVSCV", "details": "cited from earlier work"}, "[3]": {"tested_on": "spontaneously hypertensive rats", "details": "cited from earlier work"}, "JC virus": {"tested_on": "JC virus", "details": "cited from earlier work"}, "heatstroke": {"tested_on": "heatstroke", "details": "in vivo; cited from earlier work"}, "glaucoma patients": {"tested_on": "glaucoma patients", "details": "cited from earlier work"}, "thermal induced pain": {"tested_on": "thermal induced pain", "details": "rats, intraperitoneal administration; cited from earlier work"}, "inflammatory pain": {"tested_on": "inflammatory pain", "details": "rats, intrathecal or intraperitoneal administration; cited from earlier work"}, "diabetic nephropathy": {"tested_on": "diabetic nephropathy", "details": "trial of 24 months of treatment; cited from earlier work"}, "[4]": {"tested_on": "lower back pain, leg pain and numbness associated with sciatica", "details": "humans; cited from earlier work"}},
  "data": [
    {"smiles": "COc1cccc(C(=O)Nc2ccc(OCCN3CCOCC3)c(-c3ccnn3C)c2)c1.Cl", "note": "[Example 1, 4-(2-(4-(3-Methoxybenzamido)-2-(1-methyl-1H-pyrazol-5-yl)phenoxy)ethyl)morpholin-4-ium chloride]", "values": [
      {"measurement": "solid form recovered after slurry in water", "setting": "[1]", "result": "anhydrous form was recovered"}
    ]},
    {"smiles": "CN1CCN2c3ccccc3Cc3ccccc3C2C1", "note": "(centres unmarked) [Mainserin]", "values": [
      {"measurement": "DOCA-salt induced hypertension", "setting": "[2]", "result": "prevent"}
    ]},
    {"smiles": "O=C(c1ccc(F)cc1)C1CCN(CCn2c(=O)[nH]c3ccccc3c2=O)CC1", "note": "[ketanserin]", "values": [
      {"measurement": "activity at 5-HT2A", "setting": "5-HT2A", "result": "inverse agonist activity"},
      {"measurement": "blood pressure", "setting": "[3]", "result": "stabilize"},
      {"measurement": "JC virus infection of human glial cells", "setting": "JC virus", "result": "inhibited"},
      {"measurement": "protection against circulatory shocks, intracranial hypertension, and cerebral ischemia during heatstroke", "setting": "heatstroke", "result": "protect"},
      {"measurement": "IOP", "setting": "glaucoma patients", "result": "significantly lower"}
    ]},
    {"smiles": "Cc1nc2sccn2c(=O)c1CCN1CCC(=C(c2ccc(F)cc2)c2ccc(F)cc2)CC1", "note": "[ritanserin]", "values": [
      {"measurement": "activity at 5-HT2A", "setting": "5-HT2A", "result": "inverse agonist activity"},
      {"measurement": "JC virus infection of human glial cells", "setting": "JC virus", "result": "inhibited"}
    ]},
    {"smiles": "COc1cccc(CCc2ccccc2OCC(CN(C)C)OC(=O)CCC(=O)O)c1", "note": "(centres unmarked) [sarpogrelate]", "values": [
      {"measurement": "analgesic effect on thermal induced pain", "setting": "thermal induced pain", "result": "significant analgesic effect"},
      {"measurement": "analgesic effect on inflammatory pain", "setting": "inflammatory pain", "result": "significant analgesic effect"},
      {"measurement": "urinary albumin excretion level", "setting": "diabetic nephropathy", "result": "significantly reduced"},
      {"measurement": "treatment for lower back pain, leg pain and numbness associated with sciatica brought on by lumbar disc herniation", "setting": "[4]", "result": "effective treatment"},
      {"measurement": "IOP", "setting": "glaucoma patients", "result": "significantly lower"}
    ]}
  ]
}
